Results as given in patent US20090029995A1, “HETERO BIARYL DERIVATIVES AS MATRIX METALLOPROTEINASE INHIBITORS” (WARNER-LAMBERT COMPANY, priority 2002, published 2009).

Assays:
MMP-13 catalytic domain = biological target: T1, MMP-13 catalytic domain (Homo sapiens, UniProt P45452); test: MMP-13 catalytic domain inhibition (thiopeptolide substrate hydrolysis); type: biochemical; conditions: read-out: MMP-13CD IC50
T1 construct: use the catalytic domain of the MMP-13 enzyme, namely matrix metalloproteinase-13 catalytic domain (“MMP-13CD”)
Text: The assays measure the amount by which a test compound reduces the hydrolysis of a thiopeptolide substrate catalyzed by a matrix metalloproteinase enzyme. […] One such assay is described below in Biological Method 1.
Some of the particular methods described below use the catalytic domain of the MMP-13 enzyme, namely matrix metalloproteinase-13 catalytic domain (“MMP-13CD”), rather than the corresponding full-length enzyme, MMP-13.
Thiopeptolide substrates show virtually no decomposition or hydrolysis at or below neutral pH in the absence of a matrix metalloproteinase enzyme. A typical thiopeptolide substrate commonly utilized for assays is Ac-Pro-Leu-Gly-thioester-Leu-Leu-Gly-OEt. […] Assays are carried out with and without matrix metalloproteinase inhibitor compounds, and the amount of hydrolysis is compared for a determination of inhibitory activity of the test compounds.

| melting point [°C] | IC50 (MMP-13 catalytic domain) [nM] | SMILES |
| --- | --- | --- |
| 100 to 103 | 190 | CS(=O)(=O)c1ccc(Cn2nnc(-c3ccnc(C(=O)NCc4ccc(Oc5ccccc5)cc4)c3)n2)cc1 [Example F8, 4-[2-(4-Methanesulfonyl-benzyl)-2H-tetrazol-5-yl]-pyridine-2-carboxylic acid 4-phenoxy-benzylamide] |
| 158 to 159 | 2.6 | O=C(O)Cc1ccc(Cn2nnc(-c3cccc(C#CCc4ccc(F)cc4)c3)n2)cc1 [Example I1, [4-(5-{3-[3-(4-Fluoro-phenyl)-prop-1-ynyl]-phenyl}-tetrazol-2-ylmethyl)-phenyl]-acetic acid] |
| 173 to 174 | 11000 | CS(=O)(=O)c1ccc(Cn2nnc(-c3ccnc(C(=O)NCc4ccc(-n5cccn5)cc4)c3)n2)cc1 [Example F11, 4-[2-(4-Methanesulfonyl-benzyl)-2H-tetrazol-5-yl]-pyridine-2-carboxylic acid 4-pyrazol-1-yl-benzylamide] |
| 172 to 173 | 1.2 | O=C(O)C1CCC(Cn2nnc(-c3cccc(C#CCc4ccc(F)cc4)c3)n2)CC1 (stereo not shown) [Example I2, 4-(5-{3-[3-(4-Fluoro-phenyl)-prop-1-ynyl]-phenyl}-tetrazol-2-ylmethyl)-cyclohexanecarboxylic acid] |
| 226 to 228 | 690 | O=C(O)c1ccc(Cn2nnc(-c3cccc(C#Cc4ccccc4)c3)n2)cc1 [Example G1, 4-[5-(3-Phenylethynyl-phenyl)-tetrazol-2-ylmethyl]-benzoic acid] |
| 150 to 152 | 47 | CS(=O)(=O)c1ccc(Cn2nnc(-c3ccnc(C(=O)NCc4ccc(Cl)c(Cl)c4)c3)n2)cc1 [Example F10, 4-[2-(4-Methanesulfonyl-benzyl)-2H-tetrazol-5-yl]-pyridine-2-carboxylic acid 3,4-dichloro-benzylamide] |
| 143 to 144 | 22 | CS(=O)(=O)c1ccc(Cn2nnc(-c3ccnc(C(=O)NCc4ccncc4)c3)n2)cc1 [Example F3, 4-[2-(4-Methanesulfonyl-benzyl)-2H-tetrazol-5-yl]-pyridine-2-carboxylic acid (pyridin-4-ylmethyl)-amide] |
| 198 to 199 | 280 | O=C(O)c1ccc(Cn2nnc(-c3cccc(C#CCCc4ccccc4)c3)n2)cc1 [Example G2, 4-{5-[3-(4-Phenyl-but-1-ynyl)-phenyl]-tetrazol-2-ylmethyl}-benzoic acid] |
| 211 to 213 | 10 | O=C(O)c1ccc(Cn2nnc(-c3cncc(C#CCc4ccccc4)c3)n2)cc1 [Example H1, 4-{5-[5-(3-Phenyl-prop-1-ynyl)-pyridin-3-yl]-tetrazol-2-ylmethyl}-benzoic acid] |
| 163 to 164 | – | COc1ccc(Cn2nnc(-c3cccc(C(=O)NCc4ccncc4)c3)n2)cc1 [Example 18, 3-[2-(4-Methoxy-benzyl)-2H-tetrazol-5-yl]-N-pyridin-4-ylmethyl-benzamide] |
| 174 to 175 | 110 | CS(=O)(=O)c1ccc(Cn2nnc(-c3ccnc(C(=O)NCc4cccnc4)c3)n2)cc1 [Example F7, 4-[2-(4-Methanesulfonyl-benzyl)-2H-tetrazol-5-yl]-pyridine-2-carboxylic acid (pyridin-3-ylmethyl)-amide] |
| 178 to 179 | 210 | CS(=O)(=O)c1ccc(Cn2nnc(-c3ccnc(C(=O)NCc4cncnc4)c3)n2)cc1 [Example F4, 4-[2-(4-Methanesulfonyl-benzyl)-2H-tetrazol-5-yl]-pyridine-2-carboxylic acid (pyrimidin-5-ylmethyl)-amide] |
| 192 to 193 | – | CC(C)CC#Cc1cccc(-c2nnn(Cc3ccc(C(=O)O)cc3)n2)c1 [Example G3, 4-{5-[3-(4-Methyl-pent-1-ynyl)-phenyl]-tetrazol-2-ylmethyl}-benzoic acid] |
| 143 to 145 | – | COc1ccc(Cn2nnc(-c3cccc(C(=O)NCc4nccs4)c3)n2)cc1 [Example 11, 3-[2-(4-Methoxy-benzyl)-2H-tetrazol-5-yl]-N-thiazol-2-ylmethyl-benzamide] |
| 153 to 154 | – | COC(=O)c1ccc(CNC(=O)c2cccc(-c3nnn(Cc4cccc(OC)c4)n3)c2)cc1 [Example 3, 4-({3-[2-(3-Methoxy-benzyl)-2H-tetrazol-5-yl]-benzoylamino}-methyl)-benzoic acid methyl ester] |
| 222 to 224 | – | O=C(O)c1ccc(CNC(=O)c2cccc(-c3nnn(Cc4ccc(F)cc4)n3)c2)cc1 [Example 6, 4-({3-[2-(4-Fluoro-benzyl)-2H-tetrazol-5-yl]-benzoylamino}-methyl)-benzoic acid] |
| 158 to 159 | 150 | NS(=O)(=O)c1ccc(Cn2nnc(-c3cccc(C#CCc4ccccc4)c3)n2)cc1 [Example D4, 4-{5-[3-(3-Phenyl-prop-1-ynyl)-phenyl]-tetrazol-2-ylmethyl}-benzenesulfonamide] |
| 204 to 206 | 39 | COc1cccc(Cn2nnc(-c3cccc(C(=O)NCc4ccc(C(=O)O)cc4)c3)n2)c1 [Example 4, 4-({3-[2-(3-Methoxy-benzyl)-2H-tetrazol-5-yl]-benzoylamino}-methyl)-benzoic acid] |
| 207 to 209 | – | COc1ccc(Cn2nnc(-c3ccc(OC)c(C(=O)NCc4ccc(C(=O)O)cc4)c3)n2)cc1 [Example 36, 4-({2-Methoxy-5-[2-(4-methoxy-benzyl)-2H-tetrazol-5-yl]-benzoylamino}-methyl)-benzoic acid] |
| 151 to 152 | 4.5 | O=S(=O)(O)c1ccc(Cn2nnc(-c3cccc(C#CCc4ccc(F)cc4)c3)n2)cc1 [Example D1, 4-(5-{3-[3-(4-Fluoro-phenyl)-prop-1-ynyl]-phenyl}-tetrazol-2-ylmethyl)-benzenesulfonic acid] |
| 166 to 169 | – | COc1ccc(Cn2nnc(-c3cccc(C(=O)NCc4ccnc(OC)c4)c3)n2)cc1 [Example 16, 3-[2-(4-Methoxy-benzyl)-2H-tetrazol-5-yl]-N-(2-methoxy-pyridin-4-ylmethyl)-benzamide] |
| 159 to 160 | – | COc1ccc(CNC(=O)c2cccc(-c3nnn(Cc4ccc(OC)cc4)n3)c2)cc1 [Example 26, N-(4-Methoxy-benzyl)-3-[2-(4-methoxy-benzyl)-2H-tetrazol-5-yl]-benzamide] |
| 101 to 104 | 150 | CS(=O)(=O)c1ccc(Cn2nnc(-c3cccc(C#CCc4ccc(F)cc4)c3)n2)cc1 [Example D5, 5-{3-[3-(4-Fluoro-phenyl)-prop-1-ynyl]-phenyl}-2-(4-methanesulfonyl-benzyl)-2H-tetrazole] |
| 145 to 146 | 24 | COc1ccc(CNC(=O)c2cc(-c3nnn(Cc4ccc(S(C)(=O)=O)cc4)n3)ccn2)cc1 [Example F6, 4-[2-(4-Methanesulfonyl-benzyl)-2H-tetrazol-5-yl]-pyridine-2-carboxylic acid 4-methoxy-benzylamide] |
| 178 to 179 | 24 | N#Cc1ccc(Cn2nnc(-c3ccnc(C(=O)NCc4ccncc4)c3)n2)cc1 [Example F5, 4-[2-(4-Cyano-benzyl)-2H-tetrazol-5-yl]-pyridine-2-carboxylic acid (pyridin-4-ylmethyl)-amide] |
| 107 to 108 | – | C/C=C/Cn1nnc(-c2cccc(C(=O)NCc3ccc(C(=O)OC)cc3)c2)n1 [Example 10, 4-{[3-(2-But-2-enyl-2H-tetrazol-5-yl)-benzoylamino]-methyl}benzoic acid methyl ester] |
| 207 to 208 | – | COc1ccc(Cn2nnc(-c3cccc(C(=O)NCc4ccc5nsnc5c4)c3)n2)cc1 [Example 15, N-2,1,3-Benzothiadiazol-5-ylmethyl-3-[2-(4-methoxy-benzyl)-2H-tetrazol-5-yl]-benzamide] |
| 158.2 to 159.6 | 7 | O=C(O)COc1ccc(Cn2nnc(-c3cccc(C#CCc4ccc(F)cc4)c3)n2)cc1 [Example D3, [4-(5-{3-[3-(4-Fluoro-phenyl)-prop-1-ynyl]-phenyl}-tetrazol-2-ylmethyl)-phenoxy]-acetic acid] |
